Measured values: publication PMC8807399, “Synthesis, Characterization, and in vivo Evaluation of a Novel Potent Autotaxin-Inhibitor” (Frontiers in Pharmacology, 2022)
pIC50: −log10 of the molar value. ≈ marks a conversion by molar mass, not a printed value.

Key:
[1] = Glutathione addition screening; assay type: in vitro ADME; details: human liver microsomes + NADPH + GSH
Experimental: All sample handling was performed based on a 96-well plate format using an automated pipetting system. The test compounds, positive controls (diclofenac, troglitazone, nefazodone, 4-[[1-(4-fluorophenyl)-2-methyl-1H-imidazol-4-yl]ethynyl]-2-methylpyridine) and solvent control (DMSO) were incubated with human liver microsomes supplemented with NADPH and reduced GSH. Stable GSH conjugates whose production can be assumed to be the result of chemically reactive metabolites were detected using a quadrupole time of flight mass spectrometer run in untargeted full scan accurate mass MSE mode (Waters Xevo G1 QTOFMSE; Waters GmbH, Eschborn, Germany). This generic GSH adduct detection method and the assay workflow are taking advantage of the specific fragmentation behavior of the peptide moiety upon collision induced dissociation of GSH adducts and so are largely independent of the conjugate (“X”) itself.

[2] = In vitro microsomal stability, human; assay type: in vitro ADME; details: human microsomes, 1 µM; value of 10 = low clearance, essentially below detection limit
Experimental: (§1) Incubations of a test compound at a concentration of 1 µM with microsomes (0.5 mg/ml) from the appropriate species (human, mouse, or rat) plus cofactor NADPH were performed in 96-well plates at 37°C on a TECAN automated liquid handling system (Tecan Group Ltd., Männedorf, Switzerland). After pre-incubation of the test compound with the microsomes for 10 min, the enzymatic reaction was started by the addition of cofactors. Aliquots of the incubations are removed at 1, 3, 6, 9, 15, 25, 35, and 45 min and are then quenched with 1:3 (v/v) acetonitrile containing internal standards. Samples were then cooled and centrifuged before analysis of the supernatant by LC-MS/MS. Logarithmic Peak area ratios (test compound peak area/internal standard peak area) were plotted against incubation time and a linear fit made to the data with emphasis upon the initial rate of compound disappearance. The slope of the fit was then used to calculate the intrinsic clearance: Clint (µL/min/mg protein) = −slope (min-1) * 1,000/[protein concentration (mg/ml)].

[3] = Lipophilicity (LogD, octanol/buffer); assay type: physicochemical; details: 1-octanol / 25 mM phosphate buffer; pH 7.4, octanol/25 mM phosphate buffer
Experimental: The experiment started with the accurate coating of the hydrophobic layer (0.45 µm PVDF membranes), which was fixed on the bottom of each DIFI©-tube (Weidmann Medical Technology AG, Rapperswil, Switzerland). The coated membranes were then connected to a 96-well plate which has been prefilled with exactly 150 µl of the selected aqueous buffer solution (25 mM phosphate buffer, pH 7.4). The buffer solution contains already the compound of interest with a maximum starting concentration of 85 µM. To expand the measurement range down to logD = −0.5 and up to logD = +4, it is necessary to carry out the procedure at two different octanol/water ratios: One with an excess of octanol for hydrophilic compounds (logD < 1) and one with a low volume of octanol for the lipophilic compounds (logD > 1). Therefore, parts of the DIFI©-tubes were filled with 15 µl 1-octanol and another part with 1 µl 1-octanol. The resulting sandwich guarantees that the membrane was completely dipped in the buffer solution. The plate was then sealed and shaken for 12 h at room temperature (23°C). During this time, the substance is distributed between the layer, the octanol, and the buffer solution. After having reached a distribution equilibrium, the DIFI©-tubes were easily disassembled from the top of the 96-well plate, so that the remaining sample concentration in the aqueous phase could be analyzed by LC/MS.

[4] = In vitro microsomal stability, mouse; assay type: in vitro ADME; details: mouse microsomes, 1 µM; value of 10 = low clearance, essentially below detection limit
Experimental: as §1

[5] = In vitro microsomal stability, rat; assay type: in vitro ADME; details: rat microsomes, 1 µM; value of 10 = low clearance, essentially below detection limit
Experimental: as §1

human ATX = target: T1, human ATX (Homo sapiens, UniProt Q13822); assay: Autotaxin inhibition assay (Amplex-Red); assay type: biochemical; details: ATX 3 nM, LPC 18:1 30 μM, read-out: hATX IC50
T1 construct: made in house
Experimental: Plates were sealed and incubated for 5 min. The final assay concentrations were ATX 3 nM, choline oxidase 2 U/ml, horseradish peroxidase 4 U/ml, LPC 18:1 30 μM, Amplex Red 50 μM, and DMSO 2%.

HT-solubility assay = assay type: physicochemical; details: aqueous buffer, thermodynamic from solid; phosphate buffer pH 6.5
Experimental: This assay was performed on a TECAN station starting from 10 mM DMSO stock solutions of the test compounds. Two aliquots of the test compound were dried and dissolved in phosphate buffer at pH 6.5. Sonication supports optimal re-solubilization. The solutions were then filtered and diluted (3 different dilution levels for each compound) followed by quantification of the dissolved material with Rapid-Fire MS. Quantification was performed for each test compound with a 6-point calibration curve prepared with the same DMSO starting solution.

Single dose PK in rats = assay type: in vivo; details: rat
Experimental: Exposures in animals treated with ATX-inhibitors were determined from K2EDTA treated plasma by LC-MS/MS at different time points. 25 µL of plasma was used for a single concentration determination. Concentration/time profiles were analyzed with MS Excel (Microsoft Corporation, Redmond, WA, United States).
For PK experiments for 7, 13, 14, and 15, respectively, animals were treated either iv or po and exposures were determined at different time points after compound administration. Suitable formulations for 13 were, for example, NMP:Tris buffer pH 8.5 (30%/70%) for iv administration with a nominal drug concentration of 1 mg/ml (dose 2 mg/kg) and a suspension in NMP:gelatine/NaCl (10%/90%) for po administration with a nominal drug concentration of 2.5 mg/ml (dose 10 mg/kg). PK parameters in Table 2 were estimated from the concentration time profiles using Phoenix WinNonlin software (Certara, Princeton, NJ, United States).

SMILES | GSH adducts [1] | Mic CL h [2] | logD at 12 h [3] | Mic CL m [4] | Mic CL r [5] | pIC50 (human ATX) | solubility (HT-solubility assay) | AUC(0-inf) (Single dose PK in rats; plasma, iv bolus, 3 mg/kg) | half-life (Single dose PK in rats; plasma, iv bolus, 3 mg/kg) | clearance (Single dose PK in rats; plasma, iv bolus, 3 mg/kg, read-out: CLp) | Vd (Single dose PK in rats; plasma, iv bolus, 3 mg/kg, read-out: Vdss) | AUC(0-inf) (Single dose PK in rats; plasma, oral gavage, 20 mg/kg) | Cmax (Single dose PK in rats; plasma, oral gavage, 20 mg/kg) | Tmax (Single dose PK in rats; plasma, oral gavage, 20 mg/kg) | half-life (Single dose PK in rats; plasma, oral gavage, 20 mg/kg) | Oral F (Single dose PK in rats; oral gavage, 20 mg/kg)
O=C(OCc1cc(Cl)cc(Cl)c1)N1C[C@@H]2CN(C(=O)c3ccc4[nH]c(=O)oc4c3)C[C@@H]2C1 [Compound 5, (3aR,6aS)-3,5-Dichlorobenzyl 5-(2-oxo-2,3-dihydrobenzo[d]oxazole-6-carbonyl)-hexahydropyrrolo[3,4-c]pyrrole-2(1H)-carboxylate] | pos | 64 µL/m/mg prot | 3.3 | 288 µL/m/mg prot | 335 µL/m/mg prot | 7.19 | 19 µg/mL (≈ 39.9 µM) |  |  |  |  |  |  |  |  | 
O=C(OCc1cc(Cl)cc(Cl)c1)N1CCC2(CC1)CN(C(=O)c1ccc3[nH]c(=O)oc3c1)C2 [Compound 4, 3,5-Dichlorobenzyl 2-(2-oxo-2,3-dihydrobenzo[d]oxazole-6-carbonyl)-2,7-diaza-spiro[3.5]-nonane-7-carboxylate] | pos | 54 µL/m/mg prot | 3.6 | 149 µL/m/mg prot |  | 7.77 | < 1 µg/mL |  |  |  |  |  |  |  |  | 
O=C(OCc1cc(Cl)cc(Cl)c1)N1CC[C@@H]2CN(C(=O)c3ccc4[nH]c(=O)oc4c3)C[C@H]2C1 (relative stereo) [Compound 2, trans-3,5-Dichlorobenzyl 2-(2-oxo-2,3-dihydrobenzo[d]oxazole-6-carbonyl)hexa-hydro-1H-pyrrolo[3,4-c]pyridine-5(6H)-carboxylate] | formation of GSH adducts was still observed and pos | 39 µL/m/mg prot | 3.7 | 74 µL/m/mg prot |  | 8.52 | < 1 µg/mL |  |  |  |  |  |  |  |  | 
O=C(OCc1cc(Cl)cc(Cl)c1)N1CCC2(CC1)CN(C(=O)c1ccc3[nH]nnc3c1)C2 [Compound 9, 3,5-Dichlorobenzyl 2-(1H-benzo[d][1,2,3]triazole-5-carbonyl)-2,7-diazaspiro[3.5]-nonane-7-carboxylate] | pos | 30 µL/m/mg prot | 3.6 | 63 µL/m/mg prot | 29 µL/m/mg prot | 7.17 | 3 µg/mL (≈ 6.32 µM) |  |  |  |  |  |  |  |  | 
O=C(OCc1cc(Cl)cc(Cl)c1)N1CC2(CCN(C(=O)c3ccc4[nH]c(=O)oc4c3)CC2)C1 [Compound 3, trans-3,5-Dichlorobenzyl 7-(2-oxo-2,3-dihydrobenzo[d]oxazole-6-carbonyl)-2,7-diaza-spiro[3.5]nonane-2-carboxylate] |  | 92 µL/m/mg prot | 3.6 | 81 µL/m/mg prot |  | 6.66 | < 1 µg/mL |  |  |  |  |  |  |  |  | 
O=C(OCc1cc(Cl)cc(Cl)c1)N1C[C@@H]2CN(C(=O)c3ccc4[nH]nnc4c3)C[C@@H]2C1 [Compound 8, (3aR,6aS)-3,5-dichlorobenzyl 5-(1H-benzo[d][1,2,3]triazole-5-carbonyl)hexahydro-pyrrolo[3,4-c]pyrrole-2(1H)-carboxylate] | pos | 23 µL/m/mg prot | 3.1 | 68 µL/m/mg prot |  | 6.58 | 34 µg/mL (≈ 73.9 µM) |  |  |  |  |  |  |  |  | 
O=C(OCc1cc(Cl)cc(Cl)c1)N1C[C@@H]2CN(C(=O)c3ccc4[nH]nnc4c3)C[C@H]2C1 [Compound 7, (3aS,6aS)-5-(1H-Benzotriazole-5-carbonyl)-hexahydro-pyrrolo [3,4-c]pyrrole-2-carboxylic acid 3,5-dichloro-benzyl ester] | pos | 16 µL/m/mg prot | 3.1 | 17 µL/m/mg prot | 10 µL/m/mg prot | 8.40 | 9 µg/mL (≈ 19.6 µM) | 2140 ng·h/mL | 48 min | 23 mL/min/kg | 1.3 L/kg | 7900 ng·h/mL | 2500 ng/mL | 15 min | 96 min | 54%
O=C(/C=C/c1ccc(OC(F)(F)F)cc1)N1C[C@@H]2CN(C(=O)c3ccc4[nH]nnc4c3)C[C@H]2C1 [Compound 11, (E)-1-((3aR,6aR)-5-(1H-benzo[d][1,2,3]triazole-5-carbonyl)hexahydropyrrolo[3,4-c]pyrrol-2(1H)-yl)-3-(4-(trifluoromethoxy)phenyl)prop-2-en-1-one] | Neg | 10/10/na µL/m/mg prot | 2.3 | 10/10/na µL/m/mg prot |  | 9.00 | < 1 µg/mL |  |  |  |  |  |  |  |  | 
O=C(OCc1cc(Cl)cc(Cl)c1)N1CC[C@@H]2CN(C(=O)c3ccc4[nH]nnc4c3)C[C@@H]2CC1 [Compound 10, cis-3,5-Dichlorobenzyl 2-(1H-benzo[d][1,2,3]triazole-5-carbonyl)octahydropyrrolo-[3,4-d]azepine-6(7H)-carboxylate] |  | 252 µL/m/mg prot |  | 727 µL/m/mg prot |  | 9.00 | 7 µg/mL (≈ 14.3 µM) |  |  |  |  |  |  |  |  | 
O=C(CCN1CCN(C(=O)OCc2cc(Cl)cc(Cl)c2)CC1)c1ccc2[nH]c(=O)oc2c1 [Compound 1, reference compound] | pos | 65 µL/m/mg prot | 2.7 | 78 µL/m/mg prot | 84 µL/m/mg prot |  | < 1 µg/mL |  |  |  |  |  |  |  |  | 
O=C(OCc1cc(Cl)cc(Cl)c1)N1CC[C@@H]2CN(C(=O)c3ccc4[nH]nnc4c3)C[C@H]2C1 (relative stereo) [Compound 6, trans-2-(1H-Benzotriazole-5-carbonyl)-octahydro-pyrrolo[3,4-c]pyridine-5-carboxylic acid 3,5-dichloro-benzyl ester] | pos | 23 µL/m/mg prot | 3.5 | 65 µL/m/mg prot |  | 8.40 | 9 µg/mL (≈ 19 µM) |  |  |  |  |  |  |  |  | 
